Experimental findings from PubChem BioAssay AID298 (DTP/NCI, 2004) are described below.

The structures appear in SMILES notation. Several values for one entry are separate records, joined by “and”; a condition that tells them apart may be missing. Equal entries are not always repeated. Results filed as inconclusive are left out.

The test system of the test is MX-1 breast xenograft, intrarenal, nude mice, tumor weight. Briefly: NCI In Vivo Anticancer Drug Screen. Data for tumor model Human Mammary Carcinoma MX-1 Xenograft (intrarenal inoculation) in NU/NU BALB/C (nude) mice. The settings on record: endpoint: mean tumor weight change, higher = larger tumour. On the procedure:
The antitumor activity of compounds was measured in mice bearing transplantable tumors. Survival or tumor size were measured and the results are expressed as the measurement made in the treated group (T) divided by the measurement made in the vehicle treated control group (C). The tumor model used in this assay is Human Mammary Carcinoma MX-1 Xenograft (intrarenal inoculation) in NU/NU BALB/C (nude) mice
In general terms: In xenograft studies the graft and the host belong to different species.

The mark [1] stands for this setting: dose: 150.0 mg/kg/injection, schedule: Q04DX003 (ip), vehicle: saline with Tween-80.
Setting [2] is: dose: 300.0 mg/kg/injection, schedule: Q04DX003 (ip), vehicle: saline with Tween-80.
[3] abbreviates: dose: 600.0 mg/kg/injection, schedule: Q04DX003 (ip), vehicle: saline with Tween-80.
[4] abbreviates: dose: 150.0 mg/kg/injection, schedule: Q04DX003 (ip), vehicle: DMSO.
Where [5] appears, read: dose: 300.0 mg/kg/injection, schedule: Q04DX003 (ip), vehicle: DMSO.
Where [6] appears, read: dose: 600.0 mg/kg/injection, schedule: Q04DX003 (ip), vehicle: DMSO.

For `CNc1ncn(-c2c(C)cccc2C)c(=O)n1`, the T/C under setting [1] is 92 % of control and 97 % of control; the T/C under setting [2] was 77 % of control; the T/C under setting [3] is 25 % of control.
For `CN(Cc1cnc2nc(N)nc(N)c2n1)c1ccc(C(=O)N[C@@H](CCC(=O)O)C(=O)O)cc1`, the T/C is 152 % of control (dose: 3.0 mg/kg/injection, schedule: Q04DX003 (sc), vehicle: sodium bicarbonate); 162 % of control (dose: 6.0 mg/kg/injection, schedule: Q04DX003 (sc), vehicle: sodium bicarbonate); 112 % of control (dose: 12.0 mg/kg/injection, schedule: Q04DX003 (sc), vehicle: sodium bicarbonate); 55 % of control (dose: 18.0 mg/kg/injection, schedule: Q04DX003 (ip), vehicle: sodium bicarbonate); 80 % of control (dose: 24.0 mg/kg/injection, schedule: Q04DX003 (sc), vehicle: sodium bicarbonate).
Take `CO[C@H]1Nc2c(ccc(C)c2O)C(=O)N2C=C(/C=C/C(N)=O)C[C@@H]12`: the T/C is 41 % of control (dose: 0.25 mg/kg/injection, schedule: Q04DX003 (sc), vehicle: saline + alcohol); 12 % of control (dose: 0.5 mg/kg/injection, schedule: Q04DX003 (sc), vehicle: saline + alcohol); -58 % of control (dose: 1.0 mg/kg/injection, schedule: Q04DX003 (sc), vehicle: saline + alcohol); -98 % of control (dose: 2.0 mg/kg/injection, schedule: Q04DX003 (sc), vehicle: saline + alcohol).
Turning to `CC(C)c1cc(C(=O)O)c(O)c(C(C)C)c1.CC(C)c1cc(C(=O)O)c(O)c(C(C)C)c1.[Cu]`, the T/C reads like this: (dose: 12.5 mg/kg/injection, schedule: Q04DX003 (ip), vehicle: saline with Tween-80) 74 % of control; (dose: 50.0 mg/kg/injection, schedule: Q04DX003 (ip), vehicle: saline with Tween-80) 116 % of control; (dose: 100.0 mg/kg/injection, schedule: Q04DX003 (ip), vehicle: saline with Tween-80) 90 % of control.
Take `S=c1sc2ccccc2n1CN1CCOCC1`: the T/C is 77 % of control and 84 % of control (dose: 75.0 mg/kg/injection, schedule: Q04DX003 (ip), vehicle: saline with Tween-80); 110 % of control and 115 % of control under setting [1]; 79 % of control and 90 % of control under setting [2]; 67 % of control and 82 % of control under setting [3].
Consider `CC(CNC(=O)C12CC3CC(CC(C3)C1)C2)NC(=O)C12CC3CC(CC(C3)C1)C2` (stereo not drawn), for which the T/C by setting is: (dose: 75.0 mg/kg/injection, schedule: Q04DX003 (ip), vehicle: DMSO) 82 % of control; under setting [4], 95 % of control; under setting [5], 106 % of control; under setting [6], 105 % of control.
With `NC(CCl)=NCC12CC3CC(CC(C3)C1)C2`, the T/C was 102 % of control (dose: 37.5 mg/kg/injection, schedule: Q04DX003 (sc), vehicle: Klucel (hydroxypropylcellulose) (HPC)) and 104 % of control (dose: 75.0 mg/kg/injection, schedule: Q04DX003 (sc), vehicle: Klucel (hydroxypropylcellulose) (HPC)).
Regarding `[Cl][Hg][Cl]`, under “dose: 5.0 mg/kg/injection, schedule: Q04DX003 (ip), vehicle: saline”, the T/C is 67 % of control.
`CNC(=O)Oc1ccc(S(=O)(=O)c2ccc(OC(=O)NC)cc2)cc1`: the T/C runs as follows: under setting [1], 98 % of control; under setting [2], 89 % of control; under setting [3], 33 % of control.
As for `COc1ccc(N=C(C)C2C(=O)c3ccccc3C2=O)cc1`, the T/C is 93 % of control under setting [4]; 98 % of control under setting [5]; 110 % of control under setting [6]; 105 % of control (dose: 1200.0 mg/kg/injection, schedule: Q04DX003 (ip), vehicle: DMSO).
With `Nc1n[nH]c2ccccc12`, the T/C reads like this: (dose: 300.0 mg/kg/injection, schedule: Q04DX003 (ip), vehicle: other) 93 % of control; (dose: 600.0 mg/kg/injection, schedule: Q04DX003 (ip), vehicle: other) 108 % of control.
As for `CCOC(=O)Nc1cc(NC(C)/C(=N/O)c2ccccc2)c([N+](=O)[O-])c(N)n1` (stereo not drawn), the T/C runs as follows: (dose: 18.75 mg/kg/injection, schedule: Q04DX003 (ip), vehicle: Klucel (hydroxypropylcellulose) (HPC)) 84 % of control; (dose: 37.5 mg/kg/injection, schedule: Q04DX003 (ip), vehicle: Klucel (hydroxypropylcellulose) (HPC)) 60 % of control; (dose: 75.0 mg/kg/injection, schedule: Q04DX003 (ip), vehicle: Klucel (hydroxypropylcellulose) (HPC)) 72 % of control.
For `Nc1ccc2ccc(N)cc2c1`, the T/C is 75 % of control under setting [1] and 65 % of control under setting [2].
Regarding `CCN(CC)CC(=O)O[C@]1(CC)C(=O)OCc2c1cc1n(c2=O)Cc2cc3ccccc3nc2-1`, the T/C is 35 % of control (dose: 2.0 mg/kg/injection, schedule: Q04DX003 (ip), vehicle: other); 29 % of control (dose: 2.0 mg/kg/injection, schedule: Q04DX003 (ip), vehicle: water); 19 % of control (dose: 4.0 mg/kg/injection, schedule: Q04DX003 (ip), vehicle: other); 13 % of control (dose: 4.0 mg/kg/injection, schedule: Q04DX003 (ip), vehicle: water); 1 % of control (dose: 8.0 mg/kg/injection, schedule: Q04DX003 (ip), vehicle: other); -56 % of control (dose: 16.0 mg/kg/injection, schedule: Q04DX003 (ip), vehicle: other). Further, the T/C (dose: 16.0 mg/kg/injection, schedule: Q04DX003 (ip), vehicle: water) was -100 % of control.
Turning to `CCOC(=O)C1=C(C)O/C(=C/c2cccc(Cl)c2)C1=O`, the T/C under setting [1] was 62 % of control.
For `C[CH2][Sn]([Cl])([CH2]C)[c]1cc[c]([Sn]([Cl])([CH2]C)[CH2]C)cc1`, the T/C by setting is: (dose: 0.25 mg/kg/injection, schedule: Q04DX003 (ip), vehicle: Klucel (hydroxypropylcellulose) (HPC)) 103 % of control; (dose: 0.5 mg/kg/injection, schedule: Q04DX003 (ip), vehicle: Klucel (hydroxypropylcellulose) (HPC)) 109 % of control; (dose: 1.0 mg/kg/injection, schedule: Q04DX003 (ip), vehicle: Klucel (hydroxypropylcellulose) (HPC)) 95 % of control.
As for `C[C@]12CC[C@@H]3c4ccc(OC(=O)Cc5ccc(N(CCCl)CCCl)cc5)cc4CC[C@H]3[C@@H]1CC[C@@H]2OC(=O)Cc1ccc(N(CCCl)CCCl)cc1`, the T/C is 98 % of control (dose: 300.0 mg/kg/injection, schedule: Q04DX003 (sc), vehicle: saline with Tween-80); 24 % of control (dose: 600.0 mg/kg/injection, schedule: Q04DX003 (sc), vehicle: saline with Tween-80); 7 % of control (dose: 1200.0 mg/kg/injection, schedule: Q04DX003 (sc), vehicle: saline with Tween-80).
Turning to `O=C1C=CN(C2OC(CO)C(O)C2O)C(=O)C1` (stereo not drawn), the T/C is 65 % of control (dose: 90.0 mg/kg/injection, schedule: Q01DX009 (ip), vehicle: saline); 98 % of control (dose: 133.4 mg/kg/injection, schedule: Q01DX009 (ip), vehicle: saline); 89 % of control (dose: 200.0 mg/kg/injection, schedule: Q01DX009 (ip), vehicle: saline); 36 % of control (dose: 300.0 mg/kg/injection, schedule: Q01DX009 (ip), vehicle: saline).
As for `N[C@@H](Cc1ccc(N(CCCl)CCCl)cc1)C(=O)O`, the T/C is 1 % of control and 3 % of control (dose: 1.0 mg/kg/injection, schedule: Q01DX010 (sc), vehicle: saline); 88 % of control (dose: 1.0 mg/kg/injection, schedule: Q04DX003 (sc), vehicle: saline); 49 % of control (dose: 1.5 mg/kg/injection, schedule: Q04DX003 (sc), vehicle: saline); -85 % of control and -79 % of control (dose: 2.0 mg/kg/injection, schedule: Q01DX010 (sc), vehicle: saline); -48 % of control and -38 % of control (dose: 2.0 mg/kg/injection, schedule: Q04DX003 (ip), vehicle: saline with Tween-80); 17 % of control (dose: 2.0 mg/kg/injection, schedule: Q04DX003 (sc), vehicle: saline). In addition, the T/C runs as follows: (dose: 3.0 mg/kg/injection, schedule: Q04DX003 (sc), vehicle: saline) 3 % of control; (dose: 4.0 mg/kg/injection, schedule: Q01DX010 (sc), vehicle: saline) -92 % of control and -70 % of control; (dose: 4.0 mg/kg/injection, schedule: Q04DX003 (ip), vehicle: saline with Tween-80) -94 % of control and -93 % of control; (dose: 4.0 mg/kg/injection, schedule: Q04DX003 (sc), vehicle: saline) -9 % of control; (dose: 6.0 mg/kg/injection, schedule: Q04DX003 (sc), vehicle: saline) -87 % of control; (dose: 8.0 mg/kg/injection, schedule: Q01DX010 (sc), vehicle: saline) -87 % of control. In addition, the T/C runs as follows: (dose: 8.0 mg/kg/injection, schedule: Q04DX003 (ip), vehicle: saline with Tween-80) -100 % of control and -99 % of control; (dose: 8.0 mg/kg/injection, schedule: Q04DX003 (sc), vehicle: saline) -89 % of control; (dose: 12.0 mg/kg/injection, schedule: Q04DX003 (sc), vehicle: saline) -96 % of control.
